Test results: patent US9738634B2, “Heterocyclic amide compound and herbicide” (SYNGENTA PARTICIPATIONS AG, priority 2013, dated 2017)

Tests used:
Type in all cases: in vivo
[1] = system: barnyard grass; experiment: Test Example 2: weedkilling efficacy, growth period weed treatment in the submerged state; A: barnyard grass; details: treatment dosage 252 g/ha
Outline: (§1)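 First, alluvial soil in pots is flooded to 4 cm and mixed seed is sown. Next, plants grow in a greenhouse at 25 to 30° C until the 1-2 leaf stage. Then diluted emulsion is applied onto the water surface at the given g/ha rate, and injury is assessed after 3 weeks.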

[2] = system: crabgrass; experiment: Test Example 3: weedkilling efficacy through soil treatment; D: crabgrass; details: soil treatment, treatment dosage 315 g/ha
Description: (§2) Weedkilling Efficacy Test Through Soil Treatment
(§3) Sterilized diluvial soil was introduced into 21 cm long, 13 cm wide, 7 cm deep plastic boxes, and seeds of crabgrass, green foxtail, barnyard grass, wild oat, black-grass, Italian ryegrass, common wind-grass, Indian mallow, redroot pigweed, fig-leafed goosefoot, chickweed, catchweed, birds-eye speedwell, corn, soybean, rice, wheat, beet and rapeseed were each spot-sown, and covered with about 1.5 cm of soil. Next, emulsions of compounds of the present invention prepared according to compounding example 2 were diluted with water to give the specified dosages, and applied uniformly onto the soil surface with a small sprayer. The plants were grown by placing the plastic boxes in a greenhouse at 25 to 30° C., and 3 weeks after the pesticide treatment the effect on each type of plant was investigated on the basis of the assessment criteria of test example 1.
(§4) A: barnyard grass, B: bulrush, C: oval-leafed pondweed, D: crabgrass, E: green foxtail, F: barnyard grass, G: wild oat, H: black-grass, I: Italian ryegrass, J: common wind-grass, K: Indian mallow, L: redroot pigweed, M: fig-leafed goosefoot, N: chickweed, O: catchweed, p: birds-eye speedwell, a: transplanted rice, b: directly sown rice, c: corn, d: soybean, e: wheat, f: beet, g: rapeseed
(§5) Further, pesticide dosage (g/ha) indicates the concentration regulated such that treatment was with only the stated number of grams (g), when calculated per hectare (ha).

[3] = system: redroot pigweed; experiment: Test Example 3: weedkilling efficacy through soil treatment; L: redroot pigweed; details: soil treatment, treatment dosage 315 g/ha
Description: as §2, §3, §4, §5

[4] = system: wheat; experiment: Test Example 3: soil treatment, effect on crop; e: wheat; details: soil treatment, treatment dosage 315 g/ha
Description: as §2, §3, §4, §5

[5] = system: Indian mallow; experiment: Test Example 3: weedkilling efficacy through soil treatment; K: Indian mallow; details: soil treatment, treatment dosage 315 g/ha
Description: as §2, §3, §4, §5

[6] = system: black-grass; experiment: Test Example 3: weedkilling efficacy through soil treatment; H: black-grass; details: soil treatment, treatment dosage 315 g/ha
Description: as §2, §3, §4, §5

[7] = system: beet; experiment: Test Example 3: soil treatment, effect on crop; f: beet; details: soil treatment, treatment dosage 315 g/ha
Description: as §2, §3, §4, §5

[8] = system: oval-leafed pondweed; experiment: Test Example 2: weedkilling efficacy, growth period weed treatment in the submerged state; C: oval-leafed pondweed; details: treatment dosage 252 g/ha
Outline: as §1

[9] = system: wild oat; experiment: Test Example 3: weedkilling efficacy through soil treatment; G: wild oat; details: soil treatment, treatment dosage 315 g/ha
Description: as §2, §3, §4, §5

[10] = system: directly sown rice; experiment: Test Example 3: soil treatment, effect on crop; b: directly sown rice; details: soil treatment, treatment dosage 315 g/ha
Description: as §2, §3, §4, §5

[11] = system: oval-leafed pondweed; experiment: Test Example 1: weedkilling efficacy, preemergent weed treatment in the submerged state; C: oval-leafed pondweed; details: treatment dosage 252 g/ha
Outline: (§6)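 Emulsion diluted with water to the specified per-hectare dosage is applied onto flood water (4 cm) over alluvial soil on the sowing day, with barnyard grass, bulrush and pondweed seeded and rice (2.5-leaf) transplanted; plants grow at 25–30 °C and are rated at 3 weeks.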

[12] = system: barnyard grass; experiment: Test Example 1: weedkilling efficacy, preemergent weed treatment in the submerged state; A: barnyard grass; details: treatment dosage 252 g/ha
Outline: as §6

[13] = system: soybean; experiment: Test Example 3: soil treatment, effect on crop; d: soybean; details: soil treatment, treatment dosage 315 g/ha
Description: as §2, §3, §4, §5

[14] = system: corn; experiment: Test Example 3: soil treatment, effect on crop; c: corn; details: soil treatment, treatment dosage 315 g/ha
Description: as §2, §3, §4, §5

[15] = system: chickweed; experiment: Test Example 3: weedkilling efficacy through soil treatment; N: chickweed; details: soil treatment, treatment dosage 315 g/ha
Description: as §2, §3, §4, §5

[16] = system: bulrush; experiment: Test Example 2: weedkilling efficacy, growth period weed treatment in the submerged state; B: bulrush; details: treatment dosage 252 g/ha
Outline: as §1

[17] = system: Italian ryegrass; experiment: Test Example 3: weedkilling efficacy through soil treatment; I: Italian ryegrass; details: soil treatment, treatment dosage 315 g/ha
Description: as §2, §3, §4, §5

[18] = system: transplanted rice; experiment: Test Example 1: preemergent weed treatment in the submerged state, effect on crop; a: transplanted rice; details: treatment dosage 252 g/ha
Outline: as §6

[19] = system: fig-leafed goosefoot; experiment: Test Example 3: weedkilling efficacy through soil treatment; M: fig-leafed goosefoot; details: soil treatment, treatment dosage 315 g/ha
Description: as §2, §3, §4, §5

[20] = system: green foxtail; experiment: Test Example 3: weedkilling efficacy through soil treatment; E: green foxtail; details: soil treatment, treatment dosage 315 g/ha
Description: as §2, §3, §4, §5

[21] = system: bulrush; experiment: Test Example 1: weedkilling efficacy, preemergent weed treatment in the submerged state; B: bulrush; details: treatment dosage 252 g/ha
Outline: as §6

## Cc1cnc(NC(=O)C(C)(C)N2COCN(c3ccccc3)C2=O)s1 [A-1-08]
[1]
  A (barnyard grass) weedkilling efficacy grade: 4 (weed kill ratio 70% or more, less than 90%)
[2]
  D: crabgrass, weedkilling efficacy grade: 5 (weed kill ratio 90% or more, (practically complete withering))
[3]
  L: redroot pigweed, weedkilling efficacy grade: 4 (weed kill ratio 70% or more, less than 90%)
[4]
  e: wheat, effect on crop grade: 0 (weed kill ratio 5% or less (practically no effect))
[5]
  K: Indian mallow, weedkilling efficacy grade: 1 (weed kill ratio 5% or more, less than 20%)
[6]
  H: black-grass, weedkilling efficacy grade: 5 (weed kill ratio 90% or more, (practically complete withering))
[7]
  f: beet, effect on crop grade: 0 (weed kill ratio 5% or less (practically no effect))
[8]
  C (oval-leafed pondweed) weedkilling efficacy grade: 3 (weed kill ratio 40% or more, less than 70%)
[9]
  G: wild oat, weedkilling efficacy grade: 3 (weed kill ratio 40% or more, less than 70%)
[10]
  b: directly sown rice, effect on crop grade: 4 (weed kill ratio 70% or more, less than 90%)
[11]
  C: oval-leafed pondweed, weed kill grade: 5 (weed kill ratio 90% or more, (practically complete withering))
[12]
  A: barnyard grass, weed kill grade: 5 (weed kill ratio 90% or more, (practically complete withering))
[13]
  d: soybean, effect on crop grade: 0 (weed kill ratio 5% or less (practically no effect))
[14]
  c: corn, effect on crop grade: 1 (weed kill ratio 5% or more, less than 20%)
[15]
  N: chickweed, weedkilling efficacy grade: 2 (weed kill ratio 20% or more, less than 40%)
[16]
  B (bulrush) weedkilling efficacy grade: 5 (weed kill ratio 90% or more, (practically complete withering))
[17]
  I: Italian ryegrass, weedkilling efficacy grade: 4 (weed kill ratio 70% or more, less than 90%)
[18]
  a: transplanted rice, effect on crop grade: 0 (weed kill ratio 5% or less (practically no effect))
[19]
  M: fig-leafed goosefoot, weedkilling efficacy grade: 2 (weed kill ratio 20% or more, less than 40%)
[20]
  E: green foxtail, weedkilling efficacy grade: 5 (weed kill ratio 90% or more, (practically complete withering))
[21]
  B: bulrush, weed kill grade: 5 (weed kill ratio 90% or more, (practically complete withering))

## CC(C)(C(=O)Nc1cccc(Cl)n1)N1COCN(c2ccccc2)C1=O [A-2-07]
[1]
  A (barnyard grass) weedkilling efficacy grade: 4 (weed kill ratio 70% or more, less than 90%)
[2]
  D: crabgrass, weedkilling efficacy grade: 5 (weed kill ratio 90% or more, (practically complete withering))
[3]
  L: redroot pigweed, weedkilling efficacy grade: 5 (weed kill ratio 90% or more, (practically complete withering))
[4]
  e: wheat, effect on crop grade: 3 (weed kill ratio 40% or more, less than 70%)
[5]
  K: Indian mallow, weedkilling efficacy grade: 0 (weed kill ratio 5% or less (practically no effect))
[6]
  H: black-grass, weedkilling efficacy grade: 5 (weed kill ratio 90% or more, (practically complete withering))
[7]
  f: beet, effect on crop grade: 5 (weed kill ratio 90% or more, (practically complete withering))
[8]
  C (oval-leafed pondweed) weedkilling efficacy grade: 5 (weed kill ratio 90% or more, (practically complete withering))
[9]
  G: wild oat, weedkilling efficacy grade: 5 (weed kill ratio 90% or more, (practically complete withering))
[11]
  C: oval-leafed pondweed, weed kill grade: 5 (weed kill ratio 90% or more, (practically complete withering))
[12]
  A: barnyard grass, weed kill grade: 5 (weed kill ratio 90% or more, (practically complete withering))
[13]
  d: soybean, effect on crop grade: 4 (weed kill ratio 70% or more, less than 90%)
[14]
  c: corn, effect on crop grade: 4 (weed kill ratio 70% or more, less than 90%)
[15]
  N: chickweed, weedkilling efficacy grade: 4 (weed kill ratio 70% or more, less than 90%)
[16]
  B (bulrush) weedkilling efficacy grade: 5 (weed kill ratio 90% or more, (practically complete withering))
[17]
  I: Italian ryegrass, weedkilling efficacy grade: 5 (weed kill ratio 90% or more, (practically complete withering))
[18]
  a: transplanted rice, effect on crop grade: 4 (weed kill ratio 70% or more, less than 90%)
[19]
  M: fig-leafed goosefoot, weedkilling efficacy grade: 4 (weed kill ratio 70% or more, less than 90%)
[20]
  E: green foxtail, weedkilling efficacy grade: 5 (weed kill ratio 90% or more, (practically complete withering))
[21]
  B: bulrush, weed kill grade: 5 (weed kill ratio 90% or more, (practically complete withering))

## CC(C)(C(=O)Nc1cc(Cl)cc(Br)n1)N1COCN(c2ccccc2)C1=O [A-2-24]
[1]
  A (barnyard grass) weedkilling efficacy grade: 5 (weed kill ratio 90% or more, (practically complete withering))
[2]
  D: crabgrass, weedkilling efficacy grade: 5 (weed kill ratio 90% or more, (practically complete withering))
[3]
  L: redroot pigweed, weedkilling efficacy grade: 4 (weed kill ratio 70% or more, less than 90%)
[4]
  e: wheat, effect on crop grade: 4 (weed kill ratio 70% or more, less than 90%)
[5]
  K: Indian mallow, weedkilling efficacy grade: 4 (weed kill ratio 70% or more, less than 90%)
[6]
  H: black-grass, weedkilling efficacy grade: 5 (weed kill ratio 90% or more, (practically complete withering))
[8]
  C (oval-leafed pondweed) weedkilling efficacy grade: 5 (weed kill ratio 90% or more, (practically complete withering))
[9]
  G: wild oat, weedkilling efficacy grade: 5 (weed kill ratio 90% or more, (practically complete withering))
[10]
  b: directly sown rice, effect on crop grade: 4 (weed kill ratio 70% or more, less than 90%)
[11]
  C: oval-leafed pondweed, weed kill grade: 5 (weed kill ratio 90% or more, (practically complete withering))
[12]
  A: barnyard grass, weed kill grade: 5 (weed kill ratio 90% or more, (practically complete withering))
[13]
  d: soybean, effect on crop grade: 1 (weed kill ratio 5% or more, less than 20%)
[14]
  c: corn, effect on crop grade: 0 (weed kill ratio 5% or less (practically no effect))
[15]
  N: chickweed, weedkilling efficacy grade: 4 (weed kill ratio 70% or more, less than 90%)
[16]
  B (bulrush) weedkilling efficacy grade: 5 (weed kill ratio 90% or more, (practically complete withering))
[17]
  I: Italian ryegrass, weedkilling efficacy grade: 5 (weed kill ratio 90% or more, (practically complete withering))
[18]
  a: transplanted rice, effect on crop grade: 0 (weed kill ratio 5% or less (practically no effect))
[19]
  M: fig-leafed goosefoot, weedkilling efficacy grade: 4 (weed kill ratio 70% or more, less than 90%)
[20]
  E: green foxtail, weedkilling efficacy grade: 5 (weed kill ratio 90% or more, (practically complete withering))
[21]
  B: bulrush, weed kill grade: 5 (weed kill ratio 90% or more, (practically complete withering))

## CC1=C(c2ccccc2)C(=O)N(C(C)(C)C(=O)Nc2cccc(-c3ccccc3)n2)CO1 [B-2-60]
[1]
  A (barnyard grass) weedkilling efficacy grade: 4 (weed kill ratio 70% or more, less than 90%)
[8]
  C (oval-leafed pondweed) weedkilling efficacy grade: 3 (weed kill ratio 40% or more, less than 70%)
[11]
  C (oval-leafed pondweed) weedkilling efficacy grade: 5 (weed kill ratio 90% or more, (practically complete withering))
[12]
  A (barnyard grass) weedkilling efficacy grade: 5 (weed kill ratio 90% or more, (practically complete withering))
[16]
  B (bulrush) weedkilling efficacy grade: 3 (weed kill ratio 40% or more, less than 70%)
[18]
  a (transplanted rice) effect on crop grade: 0 (weed kill ratio 5% or less (practically no effect))
[21]
  B (bulrush) weedkilling efficacy grade: 5 (weed kill ratio 90% or more, (practically complete withering))
